Data as given in ChEMBL document CHEMBL1201862, “PubChem BioAssay data set” (2004).
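Each compound was tested at five concentrations against cells in 96-well plates for 48 hours. The concentration for 50% growth inhibition is given as GI50.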 Activity calls are given as the source filed them. No stated cut-off is given here; in the data, active = GI50 up to about 1.1 µM and inactive = higher.

Tests used:
Experiment in all cases: inhibition of tumour cell growth, NCI panel, 48 h
RPMI-8226 = tested on: RPMI-8226
UACC-257 = tested on: UACC-257
SK-MEL-2 = tested on: SK-MEL-2
CAKI-1 = tested on: CAKI-1
Malme-3M = tested on: Malme-3M
LOX IMVI = tested on: LOX IMVI
T47D = tested on: T47D
MDA-MB-231 = tested on: MDA-MB-231
MOLT-4 = tested on: MOLT-4
A549 = tested on: A549
NCI/ADR-RES = tested on: NCI/ADR-RES
NCI-H226 = tested on: NCI-H226
HT-29 = tested on: HT-29
BT-549 = tested on: BT-549
SF-295 = tested on: SF-295
A498 = tested on: A498
SN12C = tested on: SN12C
HL-60 = tested on: HL-60
EKVX = tested on: EKVX

Measured: GI50

N#CC(=C1CCN(CCCC(=O)c2ccc(F)cc2)CC1)c1ccccc1
inactive: RPMI-8226 > 100 µM | UACC-257 > 100 µM | SK-MEL-2 > 100 µM | CAKI-1 > 100 µM | Malme-3M > 100 µM | LOX IMVI > 100 µM | T47D > 100 µM | MDA-MB-231 > 100 µM | MOLT-4 > 100 µM | A549 > 100 µM | NCI/ADR-RES > 100 µM | NCI-H226 > 100 µM | HT-29 62.2 µM | BT-549 > 100 µM | SF-295 > 100 µM | A498 > 100 µM | SN12C > 100 µM | HL-60 > 100 µM | EKVX > 100 µM

CCOC(=O)/C(C(N)=O)=C(/O)c1cnccn1
inactive: RPMI-8226 > 100 µM | UACC-257 > 100 µM | SK-MEL-2 > 100 µM | CAKI-1 > 100 µM | Malme-3M > 100 µM | LOX IMVI > 100 µM | T47D > 100 µM | MDA-MB-231 > 100 µM | MOLT-4 > 100 µM | A549 > 100 µM | NCI/ADR-RES > 100 µM | NCI-H226 > 100 µM | HT-29 > 100 µM | BT-549 > 100 µM | SF-295 > 100 µM | A498 > 100 µM | SN12C > 100 µM | HL-60 > 100 µM | EKVX > 100 µM

COc1cc2c(c(O)c1OC)C(=O)[C@@H]1CCC(=O)N1C2
inactive: RPMI-8226 > 100 µM | UACC-257 > 100 µM | SK-MEL-2 > 100 µM | CAKI-1 > 100 µM | Malme-3M > 100 µM | LOX IMVI > 100 µM | T47D > 100 µM | MDA-MB-231 > 100 µM | MOLT-4 > 100 µM | A549 > 100 µM | NCI/ADR-RES > 100 µM | NCI-H226 > 100 µM | HT-29 > 100 µM | BT-549 > 100 µM | SF-295 > 100 µM | A498 > 100 µM | SN12C > 100 µM | HL-60 > 100 µM | EKVX > 100 µM

O=C(O)C1C(C(=O)O)C23CC2(C(=O)O)C2(C(=O)O)CCC3=C3CCCC312 (stereo not given)
inactive: RPMI-8226 6.01 µM | UACC-257 3.39 µM | SK-MEL-2 14 µM | CAKI-1 20.2 µM | Malme-3M 4.21 µM | LOX IMVI 10.6 µM | T47D 11.8 µM | MDA-MB-231 12.1 µM | MOLT-4 4.99 µM | A549 6.34 µM | NCI/ADR-RES 20.7 µM | NCI-H226 10.4 µM | HT-29 7.45 µM | BT-549 17.2 µM | SF-295 4.13 µM | A498 18.3 µM | SN12C 8.87 µM | HL-60 3.44 µM | EKVX 11.6 µM

COc1ccc(CCN2CCN(CCc3ccc(OC)cc3)CC2)cc1
inactive: RPMI-8226 > 100 µM | UACC-257 > 100 µM | SK-MEL-2 > 100 µM | CAKI-1 > 100 µM | Malme-3M > 100 µM | LOX IMVI > 100 µM | T47D > 100 µM | MDA-MB-231 > 100 µM | MOLT-4 > 100 µM | A549 > 100 µM | NCI/ADR-RES > 100 µM | NCI-H226 > 100 µM | HT-29 > 100 µM | BT-549 > 100 µM | SF-295 46.6 µM | A498 > 100 µM | SN12C > 100 µM | HL-60 > 100 µM | EKVX > 100 µM

COc1cc(C)c(/C=C2/N=C(c3ccccc3)OC2=O)c([N+](=O)[O-])c1OC
inactive: RPMI-8226 > 100 µM | UACC-257 > 100 µM | SK-MEL-2 > 100 µM | CAKI-1 > 100 µM | Malme-3M > 100 µM | LOX IMVI > 100 µM | T47D > 100 µM | MDA-MB-231 > 100 µM | MOLT-4 > 100 µM | A549 > 100 µM | NCI/ADR-RES > 100 µM | NCI-H226 > 100 µM | HT-29 > 100 µM | BT-549 > 100 µM | SF-295 > 100 µM | A498 > 100 µM | SN12C > 100 µM | HL-60 > 100 µM | EKVX > 100 µM

COc1cccc2cc(C(=O)O)c(=O)oc12
inactive: RPMI-8226 > 100 µM | UACC-257 > 100 µM | SK-MEL-2 > 100 µM | CAKI-1 > 100 µM | Malme-3M > 100 µM | LOX IMVI > 100 µM | T47D > 100 µM | MDA-MB-231 > 100 µM | MOLT-4 > 100 µM | A549 > 100 µM | NCI/ADR-RES > 100 µM | NCI-H226 > 100 µM | HT-29 > 100 µM | BT-549 > 100 µM | SF-295 > 100 µM | A498 > 100 µM | SN12C > 100 µM | HL-60 > 100 µM | EKVX > 100 µM

Cc1ccc(S(=O)(=O)N2CCSCCSCCSCCSCC2)cc1
inactive: RPMI-8226 77.1 µM | UACC-257 > 91.2 µM | SK-MEL-2 > 34.6 µM | CAKI-1 22.4 µM | Malme-3M > 72.8 µM | LOX IMVI 59.6 µM | T47D 36.3 µM | MDA-MB-231 19.5 µM | MOLT-4 > 82.2 µM | A549 61.1 µM | NCI/ADR-RES 32 µM | NCI-H226 > 49.9 µM | HT-29 > 100 µM | BT-549 25.4 µM | SF-295 22.6 µM | A498 > 44.2 µM | SN12C > 58.5 µM | HL-60 99.8 µM | EKVX 48.5 µM

COc1cccc2cc(C(C)=O)c(=O)oc12
inactive: RPMI-8226 > 100 µM | UACC-257 > 100 µM | SK-MEL-2 > 100 µM | CAKI-1 > 100 µM | Malme-3M 52.8 µM | LOX IMVI > 100 µM | T47D 12.6 µM | MDA-MB-231 > 100 µM | MOLT-4 > 100 µM | A549 > 100 µM | NCI/ADR-RES > 100 µM | NCI-H226 > 100 µM | HT-29 > 100 µM | BT-549 > 100 µM | SF-295 > 100 µM | A498 > 100 µM | SN12C > 100 µM | HL-60 > 100 µM | EKVX > 100 µM

O=C(CC(=O)N(C(=O)c1ccccc1)c1ccc(Cl)cc1)N/N=C\c1ccccc1O
inactive: RPMI-8226 > 100 µM | UACC-257 > 100 µM | SK-MEL-2 45.1 µM | CAKI-1 > 100 µM | Malme-3M > 100 µM | LOX IMVI 58.1 µM | T47D 49.7 µM | MDA-MB-231 12.9 µM | MOLT-4 2.61 µM | A549 82 µM | NCI/ADR-RES 50.6 µM | NCI-H226 35.5 µM | HT-29 > 100 µM | BT-549 21.1 µM | SF-295 25.9 µM | A498 65 µM | SN12C > 100 µM | HL-60 > 100 µM | EKVX 37 µM
